Patent US8815946B2, “Inhibition of proliferation and fibrotic response of activated corneal stromal cells” (University of Pittsburgh—of the Commonwealth System of …, priority 2008, dated 2014)
“Also recorded” adds a separate entry of the source.

What was measured:
[1] = tested on: rabbit corneal stromal cells; experiment: Cell proliferation analysis, rabbit corneal stromal cells; type: cell-based; conditions: 1% FBS, with TGF-β1 or b-FGF/HS
Protocol: FIG. 2. Effect of ethyl pyruvate on the growth of rabbit corneal stromal cells. Corneal stromal cells in P2 growing in DMEM/F12 with 10% FBS were subcultured into desired number of 35 mm tissue culture dishes. After 24 hrs of incubation, the media were replaced with DMEM/F12 medium containing 1% FBS without EP (labeled “Control), with EP (labeled “Control+EP”); with the same medium containing TGF-β1 without EP (labeled “TGF-β1”) or with EP (labeled “TGF-β1+EP”); or with the same medium containing b-FGF/HS without EP (labeled “FGF/HS”) or with EP (labeled “FGF/HS+EP”). The cells in several marked regions were counted every 24 hours as described in Methods. […]
To study the effect of EP on cell proliferation, normal human corneal fibroblasts growing in DMEM/F12 with 10% FBS were subcultured into the desired number of 35 mm tissue culture dishes at a density of 5×10^4 cells/per dish. […] Several regions were marked on the bottom of the dishes and cells in marked regions were counted at 24 hr intervals for five days. Phase contrast digital micrographs of the cells in the marked fields were captured and the cells in the images were counted using MetaMorph® imaging software. The rate of proliferation was evaluated by determining the number of cells at specific time points after treatment/number of cells at the start of the treatment. […]

cornea = experiment: Mouse corneal wound healing and LPS inflammation model, confocal microscopy of corneal thickness and morphology; type: in vivo, Mus musculus strain C57
Excerpt: A mouse model of corneal wound healing and inflammation induced by lipopolysacharide (LPS) was used to test the effect of EP. Khatari et al., Invest. Opthalmol. Vis. Sci. (2002) 43:2278-2284. Briefly, mice (Mus musculus strain C57, age approx. 2 months) were obtained from Charles River Laboratories in accordance with institutional protocols and divided into the following treatment groups (with 3 samples in each group):
Prior to wounding, all mice were anesthetized with an intraperitoneal injection of 50 mg/kg ketamine with 5 mg/kg xylazine. Topical anesthesia was further achieved with an additional 1 drop of 0.5% proparacaine per eye. Once the animal was sufficiently anesthetized, a corneal wound was constructed in each eye using a sterile 26-gauge needle that penetrated the epithelium and the superficial layers of the stroma. This linear scratch extended from the medial to lateral canthus (FIG. 12). 10 μg of the bacterial super-antigen LPS (Pseudomonas aeruginosa lipopolysaccharide, Sigma) was applied to the wound using a 10 μl pipette and allowed to penetrate the cornea for 5 minutes. Addition of bacterial endotoxin ensured a robust inflammatory response.
The wound was then washed with phosphate buffered saline (PBS/non-pyrogenic dH2O). Following the wash, the EP treatment groups received a 10 μl drop of 5% EP in PBS buffered to physiological pH with HEPES while the control group received PBS alone. Drops were applied to the corneal wound using a pipette and the mice were held by hand in such a way as to retain the drops on the eye for approximately 2 minutes. The delivery and concentration of EP was determined according to Devamanoharan et al. (1999); 200(1-2):103-09. […] Considering this quick absorption with the elimination half-life of EP, which is approximately 90 minutes, EP (500 mM) was applied every 90 minutes over the span of 12 hours during each day, followed by 12 hours of treatment overnight.
Animals were sacrificed and eyes harvested for analysis at 1 and 2 days post-wounding. After sacrificing, but prior to harvesting, eyes were imaged using the NIDEK CONFOSCAN 3® confocal microscope to analyze the morphology of the intact cornea. The images were later reconstructed into three-dimensional images in order to observe gross morphology, measure corneal thickness and light scattering which indicate edema and hypercellularity respectively.

[2] = tested on: alpha-smooth muscle actin; experiment: Western blot of TGF-β1 activated rabbit corneal keratocytes: alpha-smooth muscle actin; type: cell-based; conditions: TGF-β1 (10 ng/ml)+1% FBS, two days, compared to controls with no treatment, listed as EP
Protocol: FIGS. 19A and 19B. Western blot analyses: Rabbit corneal keratocytes were isolated and cultured in serum-free DMEM/F12 into 60 mm tissue culture dishes. After 24 hrs of incubation, the media were replaced with DMEM/F12 medium containing TGF-β1(10 ng/ml)+1% FBS without (control) or with EP or EP-derivatives for two days. The cells were extracted in RIPA buffer and the extracts containing 5 μg of total proteins were loaded per lane for Western blot analysis.
Keratocytes or fibroblasts grown under different culture conditions were extracted in RIPA buffer (9.1 mM dibasic sodium phosphate, 1.7 mM monobasic sodium phosphate, 150 mM NaCl, pH, 7.4, 1% Nonidet P-40, 0.5% sodium deoxycholate, 0.1% SDS, 0.03 TIU/mL aprotinin, 1 mM sodium orthovanadate, and 100 μg/mL phenylmethylsulfonyl fluoride (PMSF)). Aliquots of cell extracts containing 50 or 100 μg protein were subjected to SDS-PAGE. Protein bands on SDS-PAGE were electrophoretically transferred to IMMOBILON-P™ membrane (Millipore Corp., Bedford, Mass.), stained with 0.1% Coomassie blue 250 in 40% methanol/1% acetic acid for 1 minute, destained one to three times with 50% methanol/1% acetic acid, scanned for densitometric comparisons of relative concentrations of proteins per lane, destained with methanol, and subjected to Western blot analysis. Immunoreactive bands were detected using chemiluminescence Western chemiluminescence reagents.
As described in Example 1, corneal stromal cells were isolated from rabbit corneas and cultured using the same procedures. The keratocytes in serum free media were treated with b-FGF (40 ng/ml)+HS (5 μg/ml) with or without 15 mM EP or 1, 2.5 or 5 mM following EP derivatives: 2-oxopropionic acid 3-methoxyphenyl ester, 2-oxopropionic acid 2-ethoxyethyl ester, 2-oxopropionic acid 2-chloroethyl ester, 2-oxopropionic acid isopropyl ester, 2-oxopropionic acid butyl ester, 2-oxopropionic acid p-tolyl ester, 2-oxopropionic acid tert-butyl ester. […] The relative levels of the expression of specific proteins were analyzed by Western blot analyses of the cell lysates as described supra.

[3] = 1 day post-wounding, topical 5% EP every 90 minutes

In the case of `CCOC(=O)C(C)=O` [ethyl pyruvate], the “proliferation of rabbit stromal cells” value [1] is reported as “inhibited proliferation”, the “light scattering within the stromal layer (qualitative)” value (cornea; 1 day post-wounding) is reported as “dark and quiet stroma” and the stromal thickness (cornea; [3]) is reported as 89-100 μm. For the same compound, the total corneal thickness (cornea; [3]) was 194-207 μm, the “corneal morphology / light scattering (qualitative)” value (cornea; 2 days post-wounding) was “normal in morphology” and the stromal thickness (cornea; 2 days post-wounding) was 80-85 μm. The total corneal thickness (cornea; 2 days post-wounding) was 142-154 μm and the “alpha-smooth muscle actin levels (Western blot)” value [2] was “reduced expression; also recorded: reduced levels”.
